Data: patent US20240158430A1, “NOVEL COMPOUND OR SALT THEREOF, AND ANTITUMOR ACTIVATOR CONTAINING SAME AS ACTIVE INGREDIENT” (AKITA UNIVERSITY, priority 2021, published 2024)
pIC50: −log10 of the molar value.

Experiments:
fatty acid synthetase = experiment: Influence on fatty acid synthetase, ELISA; assay type: cell-based, Human; conditions: 4 μM vs control group
Method: (§1) The influence of GO-Y199 on NF-kB (p65) was investigated. The method is as follows. 3×10^6 cells of the HCT116 cell line were added to a 10-cm plate, 2 μM of GO-Y199 was added after 24 hours, the cells were collected after 24 hours, embedded in iPGell (GenOStaff), and fixed in formalin, paraffin blocks were then prepared, and immuno-histochemistry was performed with an anti-NF-kB (p65) antibody. In addition, 2 μM and 5 μM of GO-Y199 were added, lysates were collected after 24 hours, and an expression level of NF-kB (p65) was analyzed using an ELISA-plate (NF-kBp65 (pS536) SimpleStep-ELISA-kit, Abcam). An amount of protein was corrected by the absorbance of A 280 nm. The upper part of FIG. 14 indicates photographs of the control group and the GO-Y199 (2 μM)-added group after 24 hours. The lower part of FIG. 14 indicates results of the t-test of these groups after 24 hours. FIG. 15 indicates the comparison results of the NF-kB inhibitory effect of GO-Y199 (2 μM, 5 μM)-added groups with respect to the control group.
The influence of GO-Y199 on fatty acid synthetase was investigated. The method is as described above. Protein quantification was performed using a Human Fatty acid synthase ELISA Kit (MyBioSource). FIG. 19 indicates the comparison result of the fatty acid synthetase inhibitory effect of the GO-Y199 (4 μM)-added group with respect to the control group.

HCT116 = experiment: In vivo antitumor effect, HCT116 subcutaneous implant; conditions: nude mouse, HCT116 s.c.; 1 mg single tail vein injection; maximum diameter 4 days after; control 113.7±12.4%
Method: The in vivo antitumor effect of GO-Y199 was investigated. The method is as follows. HCT116 was implanted subcutaneously into a nude mouse. After tumor formation, 100 mM GO-Y199 in DMSO was dissolved in 100 μL of PBS and injected once into the tail vein of the mouse (corresponding to 1 mg of GO-Y199). As a control group, a DMSO-PBS solution having the equivalent concentration was injected once into the tail vein. The maximum diameter of the tumor was measured 4 days after the administration.

[1] = tested on: breast cancer cell line HCC70; experiment: Cell growth inhibitory activity, HCC70; assay type: cell-based
Method: [The source words this procedure for another cell line and reports this cell line under the same test.] (§2) The cell growth inhibitory activity against a colorectal cancer cell line HCT116 was measured. As an index of cell growth inhibitory activity, a concentration at which cell growth was inhibited by 50% as compared with a control (IC50) was used. The method is as follows. HCT116 was added to a 6-well plate by 5×10^4, compounds having various concentrations were added after 24 hours, and the number of cells was counted after 72 hours of culture. As the control, DMSO was used in an amount equal to the amount added in accordance with the addition concentration of the highest-concentration compound. The number of cells at each concentration relative to the control was expressed as a percentage.
(§3) The method is as described above.

Caspase 3 = experiment: Influence on Caspase 3, immunohistochemistry; assay type: cell-based; conditions: 2 μM; 24 hours; control 1.0±0.1%
Method: as §1
The influence of GO-Y199 on Caspase 3 was investigated. The method is as described above. Immunohistochemistry was performed with an anti-Caspase 3 antibody. Quantification of apoptosis-related protein was performed using M30 Apotosense ELISA (PEVIVA). The upper part of FIG. 20 indicates photographs of the control group and the GO-Y199 (2 μM)-added group after 24 hours. […]

β-catenin = experiment: Influence on β-catenin, ELISA; assay type: cell-based; conditions: control 11.5±2.3
Method: as §1
The influence of GO-Y199 on β-catenin was investigated. The method is as described above. Immunohistochemistry was performed with an anti-β-catenin antibody. Protein quantification was performed using an ELISA plate (proteintech). FIG. 17 indicates photographs of the control group and the GO-Y199 (2 μM)-added group after 24 hours. […]

[2] = Blood concentration after intravenous injection; assay type: in vivo, BALB/cSlc-nu/+ mice; conditions: mouse, 1 mg tail vein
Method: The blood concentration of GO-Y199 after intravenous injection was investigated. The method is as follows. To BALB/cSlc-nu/+ mice, the equivalent of 1 mg of GO-Y199 was injected into the tail vein as described above, blood was collected from the orbital vein over time, and the serum was subjected to HPLC to measure the blood concentration of GO-Y199. FIG. 27 indicates results of HPLC analysis of blood after intravenous injection. FIG. 28 indicates results of changes over time in the blood concentration of GO-Y199 after intravenous injection.

[3] = tested on: gastric cancer cell line SH-10-TC; experiment: Cell growth inhibitory activity, SH-10-TC; assay type: cell-based
Method: [The source words this procedure for another cell line and reports this cell line under the same test.] as §2, §3

[4] = tested on: FOXP3-positive regulatory T cells; experiment: Regulatory T cell inhibitory activity; assay type: cell-based, mouse; conditions: 0.3 μM; control 12.8%
Method: Naive CD4^+ T cells were collected from the spleen of a mouse using a CD4^+CD62L^hi T Cell Isolation Kit (Miltenyi Biotec). 0.5×10^6 cells/mL of the collected T cells were added to a RPMI 1640 medium to which penicillin/streptomycin (5,000 units/mL), 10% fetal bovine serum, and 50 μM of 2-mercaptoethanol were added. Subsequently, 1 μg/mL of anti-CD3 antibody (eBioscience) was added to the medium, and 1 μg/ml of anti-CD28 antibody (eBioscience) was further added thereto. The medium was then cultured at 37° C. for 3 days. Then, TGF-β1 (2 ng/mL) was added to the medium and cultured for 24 hours. After that, a FOXP3 Staining Buffer Kit (eBioscience) was used to fix the cells and treat cell membranes, and FOXP3 in the nuclei was stained. The stained cells were measured using a BD LSRFortessa™ (BD Bioscience) flow cytometer, and the obtained data was analyzed with FlowJo (Tree-Star version).

Kato III = experiment: Cytocidal effect, Kato III; assay type: cell-based; conditions: 2 μM and 5 μM, cells counted after 48 and 72 hours
Method: The method is as follows. Each cell line was added to 6-well plate by 5×10^4, 2 μM and 5 μM of GO-Y199 were added after 24 hours, and the number of cells was counted after 48 hours and 72 hours.

## COCOc1cc(/C=C/C(=O)CC(SCCOCCOCCOCCOCc2cn([C@@H]3O[C@H](CO)[C@@H](O[C@@H]4O[C@H](CO)[C@H](O)[C@H](O)[C@H]4O)[C@H](O)[C@H]3O)nn2)c2cc(OCOC)cc(OCOC)c2)cc(OCOC)c1 (stereo partly drawn) [GO-Y199]
Fatty acid synthetase
  fatty acid synthetase inhibitory effect: significant fatty acid synthetase inhibitory effect
HCT116
  tumor augmentation, % of that before the administration: 95.2±20.0%
[1]; Table 4, 72 hours
  pIC50: 6.27
[1]; Table 5, ratio of IC50
  GO-Y199 vs GO-Y030 (IC50 comparison), HCC70: 0.24
Caspase 3
  proportion of Caspase 3-expressing cells: 57.4±2.6%
β-catenin; 2 μM
  relative expression level of β-catenin: 2.8±0.8
β-catenin; 5 μM
  relative expression level of β-catenin: 3.9±1.1
[2]
  time for which the blood concentration is maintained: 3 h
[2]; serum HPLC
  time after which GO-Y199 disappeared from the blood: 180 min
  time until which the blood concentration rapidly decreased: 60 min
[3]; Table 4, 72 hours
  pIC50: 6.00
[3]; Table 5, ratio of IC50
  GO-Y199 vs GO-Y030 (IC50 comparison), SH-10-TC: 0.65
  GO-Y199 vs curcumin (IC50 comparison), SH-10-TC: 0.124
[4]
  induction ratio of FOXP3-positive regulatory T cells: 2.22%
Kato III
  cytocidal effect: cytocidal effect
